Reference: ChEMBL document CHEMBL1156829 (Proc Natl Acad Sci U S A, 2008)

Columns and labels:
[1] = NOVARTIS: Cytotoxicity against human hepatocellular carcinoma cell line (Huh7); assay type: toxicity, cell-based, Huh-7; conditions: Huh7 cells (hepatocellular carcinoma cell line)
[2] = test system: Plasmodium falciparum; test: NOVARTIS: Inhibition of Plasmodium falciparum 3D7 (drug-susceptible) proliferation in erythrocyte-based infection assay; assay type: functional, organism-based; conditions: Plasmodium falciparum, 3D7
[3] = test system: Plasmodium falciparum; test: NOVARTIS: Inhibition of Plasmodium falciparum W2 (drug-resistant) proliferation in erythrocyte-based infection assay; assay type: functional, organism-based; conditions: Plasmodium falciparum, W2; read-out: EC50

| SMILES | CC50 [1] [µM] | EC50 [2] [µM] | EC50 [3] [µM] |
| --- | --- | --- | --- |
| COc1cccc2c1[C@@H](OC)[C@@]13O[C@]1(C2=O)[C@H](O)[C@@H](C)[C@](O)(C(=O)[C@@H]1O[C@H]1C)[C@H]3O | 2.82 | 0.264 | 0.226 |
| CCC(c1nc2ccccc2c(=O)n1-c1ccc(F)c(Cl)c1)N(CCc1ccccc1)C(=O)COc1ccccc1 (configuration not stated) | > 6.28 | 1.19 | > 0.492 |
| c1cncc(-c2cc(N3CCc4ccccc4C3)nc(-c3ccncc3)n2)c1 | > 10 | 0.602 | 0.794 |
| c1cc2cc3ccc(OCCN4CCCCC4)cc3nc2cc1OCCN1CCCCC1 | > 10 | 0.348 | 0.772 |
| O=C(CCC1CCCC1)NCCCCNc1ccnc2cc(Cl)ccc12 | 2.27 | 0.486 | 0.175 |
| COc1ccc(OC)c(-c2ccc(O)c(CNCC(C)C)c2)c1 | > 10 | 0.95 | 0.773 |
| COc1ccccc1N1CCN([C@@H]2CCN(Cc3cccnc3)C[C@@H]2CCC(=O)N2CCCC2)CC1 | > 10 | 1.08 | 0.81 |
| O=C(Nc1ccc(Cl)c(C(F)(F)F)c1)NC1CC2CCC(C1)N2C1CCCC1 (configuration not stated) | > 10 | 0.541 | 0.81 |
| N#C/C(=C\c1ccccc1OCc1ccc(Cl)cc1Cl)c1nc2ccccc2[nH]1 | > 10 | 0.348 | > 0.772 |
| CCCOc1ccc(C=Nc2ccc(S(=O)(=O)Nc3ccccn3)cc2)cc1 | > 10 | 1.41 | 0.813 |
| CCNC(=O)NCCSc1nc(-c2ccc(OC)cc2)c(-c2ccc(OC)cc2)n1CC | > 10 | > 1.66 | > 0.812 |
| CC(C)CNC(=O)c1cnc(NCCCN(C)C)nc1NCC1CCCCC1 | > 10 | 0.334 | 0.815 |
| COC(=O)c1cccc(NC(=O)/C(=C\c2cccc([N+](=O)[O-])c2)NC(=O)c2ccccc2OC)c1 | > 10 | > 1.67 | > 0.814 |
| O=C(CSc1nc2ccccc2c(=O)n1C1CC1)Nc1cc(C(F)(F)F)ccc1Cl | > 100 | 0.719 | 8.11 |
| Cc1nc(-c2ccccc2)nc(C(=O)N2CCN(S(=O)(=O)/C=C/c3ccccc3)C(C)C2)c1C(=O)OCC(C)C (configuration not stated) | > 10 | 0.931 | 0.785 |
| Cc1csc(NC(=O)C2c3ccccc3C(=O)N(CC(C)C)C2c2cccs2)n1 (configuration not stated) | > 10 | 0.611 | 0.785 |
| COc1cc(NC(=O)Cn2ncc3c(=O)oc4ccccc4c32)cc(OC)c1OC | > 100 | > 12.5 | 7.83 |
| Cc1ccc(S(=O)(=O)N(C)CCCNc2ccnc3cc(Cl)ccc23)cc1 | 4.01 | 0.38 | 0.314 |
| c1ccc2c(c1)ccc[n+]2CCCCCC[n+]1cccc2ccccc21 | > 10 | 0.406 | 0.78 |
| Cc1nc2cc(-c3ccc(F)cc3)nn2c(NCCCn2ccnc2)c1C | > 10 | 0.99 | 0.776 |
| O=C1NCCN1CCNS(=O)(=O)c1cc(C(F)(F)F)cc(C(F)(F)F)c1 | > 10 | 1.2 | 0.786 |
| CCOc1ccc(NCc2ccc(O)c3ncccc23)cc1 | > 55.6 | 7.61 | > 4.37 |
| COC(=O)C1=CNC=C(C(=O)OC)C1c1cc(Br)ccc1OC | > 57.8 | > 12.2 | 4.52 |
| CCCCCCN(C(=O)c1ccc(CC)cc1)C(CC)c1nc2ccccc2c(=O)n1-c1cccc(Cl)c1 (configuration not stated) | > 10 | 0.781 | 0.782 |
| CC(C)CN(CC(=O)Nc1cc(C(C)(C)C)nn1-c1ccccc1)C(=O)Cc1cccs1 | > 10 | 1.3 | 0.781 |
| COc1ccc(NC2=CC(=O)CC(c3ccccc3)C2)c(OC)c1 (configuration not stated) | > 100 | > 12.5 | 7.74 |
| COc1cccc(OC)c1C(=O)Oc1cccc2ccc(C)nc12 | > 10 | > 1.25 | 0.788 |

| SMILES | CC50 [1] [µM] | EC50 [2] [µM] | EC50 [3] [µM] |
| --- | --- | --- | --- |
| O=C(CCl)NCCCN(C(=O)Nc1ccc(Cl)c(Cl)c1)c1ccccc1 | > 0.931 | 0.217 | 0.074 |
| O=[N+]([O-])c1ccc(Cl)c(-c2ccc(C=NNc3nc4ccccc4[nH]3)o2)c1 | > 10 | 0.946 | 0.801 |
| COc1ccc(C=Cc2ccc3ccccc3[n+]2C)cc1 | > 100 | > 5.37 | 7.93 |
| CCCNC(=O)c1cc(NC(=O)c2cc(C(F)(F)F)cc(C(F)(F)F)c2)ccc1N1CCCCC1 | 10.2 | > 1.56 | > 0.816 |
| COc1ccc(OC)c(-c2ccc(O)c(CNCCc3ccccc3F)c2)c1 | > 10 | 1.14 | 0.79 |
| CCCCCCN(C(=O)c1cccc(C(F)(F)F)c1)C(CC)c1nc2ccccc2c(=O)n1-c1ccccc1OC (configuration not stated) | > 10 | 0.793 | 0.79 |
| COc1ccc(CCNC(=O)Cn2c(C)cc3ccccc3c2=O)cc1OC | > 10 | > 1.54 | 0.796 |
| COC(=O)C(Nc1ccc(Cl)c(Cl)c1)(c1cc(C)c(O)c(C)c1)C(F)(F)F (configuration not stated) | > 10 | > 1.39 | > 0.789 |
| O=C1CC(=O)Nc2cc(S(=O)(=O)NC3CCCCCCC3)ccc2N1 | > 10 | > 1.25 | > 0.796 |
| Cn1c(=O)[nH]c2c(c1=O)n(C)c(=O)n2C | > 10 | > 0.957 | > 0.799 |
| CC(=O)N(C1=C(N2CCOCC2)C(=O)c2ccccc2C1=O)c1ccc(F)cc1 | 0.173 | 0.0129 | 0.014 |
| Cc1cccnc1NC(=O)CCCC(=O)O | > 10 | > 1.07 | 0.788 |
| COc1ccc(CCNc2nc(NCCC3CCCN3C)ncc2C(=O)NCc2ccccc2)cc1OC (configuration not stated) | > 10 | 1.06 | > 0.802 |
| Cn1c2ccccc2c2nnc(NN=Cc3ccccn3)nc21 | > 10 | 0.866 | 0.793 |
| CCCn1c(C=NNc2nc3ccccc3[nH]2)nc2ccccc21 | 62.8 | 5.56 | 5.11 |
| O=C(/C=C/c1ccccc1)NNC(=O)c1cccnc1 | > 9.45 | > 1.25 | > 0.75 |
| COc1ccc(-c2c[n+](-c3ccccc3)c3n2CCS3)cc1 | > 10 | 0.778 | 0.784 |
| COc1cc(NC(C)CCCN(Cc2ccc(F)cc2)C(=O)CCc2ccccc2)c2ncccc2c1 (configuration not stated) | 4.62 | 1.4 | 0.361 |
| CCCCc1ccc(NC(C)=O)cc1 | 4.21 | 0.214 | 0.334 |
| CCCC(=O)N1CCN(C(=O)c2nc(-c3ccccc3)nc(CCC)c2C(=O)OCC)CC1C (configuration not stated) | > 10 | 1.2 | 0.774 |
| CC1(C)CC(NC(=O)C(=O)NC2CC(C)(C)N(O)C(C)(C)C2)CC(C)(C)N1O | > 10 | > 1.3 | > 0.784 |
| CN(C)c1ccc(/C=C/c2cc(/C=C/c3ccc(N(C)C)cc3)[n+]3ccccc3n2)cc1 | > 10 | 1.34 | 0.811 |
| CCCCOc1ccc(-c2nnc(-c3ccc(C)cc3)n2-c2ccccc2)cc1 | > 10 | > 1.2 | > 0.777 |
| O=C(Oc1ccccc1N1C(=O)C2C3C=CC(C3)C2C1=O)c1ccc([N+](=O)[O-])cc1 (configuration not stated) | > 100 | > 9.74 | 8.07 |
| Cc1ccc2ncnc(Nc3cccc(C(F)(F)F)c3)c2c1 | 27.9 | 0.947 | 2.17 |
| CC(C)c1ccc(C2N(c3ccccc3)C3(C(=O)c4ccccc4C3=O)C(c3ccc(C(C)C)cc3)C23C(=O)c2ccccc2C3=O)cc1 (configuration not stated) | > 10 | 0.802 | 0.792 |
| Cn1c(COc2ccc(Cl)cc2Cl)[n+](C)c2ccccc21 | > 10 | 0.261 | 0.773 |
